From patent US20060046968A1, “Prodrug substituted benzoxazoles as estrogenic agents” (priority 2004, published 2006)

Experiments:
Type in all cases: in vivo
[1] = tested on: Sexually immature 129 SvE mice; experiment: Mouse uterotrophic test procedure (Procedure 2); settings: compound 20 mg/kg s.c., days 22-25
Male HLA-B27 rats [2] = experiment: HLA-B27 rat model of arthritis: joint histology; settings: Study 1; oral 46 days; 10 mg/kg days 1-18, then 20 mg/kg
Method: At the end of the study, the rats are euthanized with CO2, hindlimbs removed at necropsy and fixed in 10% buffered formalin, and the tarsal joints decalcified and embedded in paraffin. Histologic sections are stained with Hematoxylin and Eosin or […] Green stain. Slides are coded so that the examiner is blinded to the treatment groups. Synovial tissue from tarsal joints is evaluated based on synovial hyperplasia, inflammatory cell infiltration, and pannus formation [Poole and Coombs, International Archives of Allergy & Applied Immunology 54: 97-113 (1977)], as outlined below. [table] […] [table] Representative metabolites of compounds of the invention were evaluated in the HLA-B27 rat standard pharmacological test procedure, which emulates arthritis in humans. The following briefly describes the procedure used and results obtained. Male HLA-B27 rats were obtained from Taconic and provided unrestricted access to a food (PMI® LabDiet 5001) and water. Joint scores and histology were evaluated as described above for the Lewis rat model of adjuvant-induced arthritis. Study 1: […]

[3] = tested on: Sexually immature Sprague-Dawley rats; experiment: Rat uterotrophic test procedure (Procedure 1); settings: compound 2 mg/rat + 17α-ethinyl, 17β-estradiol 0.06 μg/rat s.c. (antagonist mode)
Male HLA-B27 rats [4] = experiment: HLA rat test for inflammatory bowel disease: stool character (3 = diarrhea; 2 = soft stool; 1 = normal stool); settings: Study C
Male HLA-B27 rats [5] = experiment: HLA-B27 rat model of arthritis: joint scores; settings: Study 1, oral 20 mg/kg once per day (10 mg/kg earlier)
[6] = tested on: ovariectomized Sprague-Dawley rats; experiment: Bone mineral density in the ovariectomized rat (pQCT, proximal tibia); settings: compound 10 mg/kg s.c.; 5 weeks
Male HLA-B27 rats [7] = experiment: HLA-B27 rat test for inflammatory bowel disease: histological scoring of colon; settings: Study C
Method: Representative metabolites of compounds of the invention were evaluated in the HLA rat standard pharmacological test procedure, which emulates inflammatory bowel disease in humans. The following briefly describes the procedure used and results obtained. […] Louis) and water. Stool quality was observed daily and graded according to the following scale: Diarrhea=3; soft stool=2; normal stool=1. At the end of the study, serum was collected and stored at −70° C. A section of colon was prepared for histological analysis and an additional segment was analyzed for myeloperoxidase activity. In Study A, rats (22-26 weeks old) were dosed subcutaneously once per day for seven days with one of the regimens listed below. […] Histological analysis. Colonic tissue was immersed in 10% neutral buffered formalin. Each specimen of colon was separated into four samples for evaluation. The formalin-fixed tissues were processed in a Tissue-Tek® vaccum infiltration processor (Miles, Inc; West Haven, Conn.) for paraffin embedding. The samples were sectioned at 5 μm and then stained with hematoxylin and eosin (H&E) for blinded histological evaluations using a scale modified after Boughton-Smith. After the scores were completed, the samples were unblinded, and data were tabulated and analyzed by ANOVA linear modeling with multiple mean comparisons. Sections of colonic tissue were evaluated for several disease indicators and given relative scores.

[8] = oral 7 weeks, 10 mg/kg days 1-18, then 20 mg/kg

Oc1cc(Br)c2oc(-c3ccc(O)c(F)c3)nc2c1 [Example 21, 7-BROMO-2-(3-FLUORO-4-HYDROXYPHENYL)-1,3-BENZOXAZOL-5-OL]
mean uterine weight ± SEM [1]: 12.1 ± 1.7 mg | Mankin score (mean ± SD) (Male HLA-B27 rats [2]): 4.6 ± 0.9 | Synovitis score (mean ± SD) (Male HLA-B27 rats [2]): 6.1 ± 0.75 | mean uterine weight ± SEM [3]: 93.9 ± 5.9 mg | Stool Character (group's average score) (Male HLA-B27 rats [4]; oral 10 mg/kg once per day, Day 1): 2.75 | Stool Character (group's average score) (Male HLA-B27 rats [4]; oral 10 mg/kg once per day, Day 3): 2.75 | Stool Character (group's average score) (Male HLA-B27 rats [4]; oral 10 mg/kg once per day, Day 4): 2.75 | Stool Character (group's average score) (Male HLA-B27 rats [4]; oral 10 mg/kg once per day, Day 5): 2.75 | Stool Character (group's average score) (Male HLA-B27 rats [4]; oral 10 mg/kg once per day, Day 6): 2.5 | Stool Character (group's average score) (Male HLA-B27 rats [4]; oral 10 mg/kg once per day, Day 7): 2.5 | Stool Character (group's average score) (Male HLA-B27 rats [4]; oral 10 mg/kg once per day, Day 8): 2.75 | Stool Character (group's average score) (Male HLA-B27 rats [4]; oral 10 mg/kg once per day, Day 9): 2.5 | Stool Character (group's average score) (Male HLA-B27 rats [4]; oral 10 mg/kg once per day, Day 10): 2.75 | Stool Character (group's average score) (Male HLA-B27 rats [4]; oral 10 mg/kg once per day, Day 11): 2.5 | Stool Character (group's average score) (Male HLA-B27 rats [4]; oral 10 mg/kg once per day, Day 12): 2.5 | Stool Character (group's average score) (Male HLA-B27 rats [4]; oral 10 mg/kg once per day, Day 13): 2.5 | Stool Character (group's average score) (Male HLA-B27 rats [4]; oral 10 mg/kg once per day, Day 14): 2.5 | Stool Character (group's average score) (Male HLA-B27 rats [4]; oral 10 mg/kg once per day, Day 15): 2.5 | Stool Character (group's average score) (Male HLA-B27 rats [4]; oral 10 mg/kg once per day, Day 16): 2.5 | Stool Character (group's average score) (Male HLA-B27 rats [4]; oral 10 mg/kg once per day, Day 17): 2.5 | Stool Character (group's average score) (Male HLA-B27 rats [4]; oral 10 mg/kg once per day, Day 18): 2.5 | Stool Character (group's average score) (Male HLA-B27 rats [4]; oral 20 mg/kg once per day (10 mg/kg days 1-18), Day 19): 2.75 | Stool Character (group's average score) (Male HLA-B27 rats [4]; oral 20 mg/kg once per day (10 mg/kg days 1-18), Day 20): 2.5 | Stool Character (group's average score) (Male HLA-B27 rats [4]; oral 20 mg/kg once per day (10 mg/kg days 1-18), Day 21): 2.75 | Stool Character (group's average score) (Male HLA-B27 rats [4]; oral 20 mg/kg once per day (10 mg/kg days 1-18), Day 22): 2.5 | Stool Character (group's average score) (Male HLA-B27 rats [4]; oral 20 mg/kg once per day (10 mg/kg days 1-18), Day 23): 2.25 | Stool Character (group's average score) (Male HLA-B27 rats [4]; oral 20 mg/kg once per day (10 mg/kg days 1-18), Day 24): 1.75 | Stool Character (group's average score) (Male HLA-B27 rats [4]; oral 20 mg/kg once per day (10 mg/kg earlier), Day 25): 2 | Stool Character (group's average score) (Male HLA-B27 rats [4]; oral 20 mg/kg once per day (10 mg/kg earlier), Day 26): 2 | Stool Character (group's average score) (Male HLA-B27 rats [4]; oral 20 mg/kg once per day (10 mg/kg earlier), Day 27): 2 | Stool Character (group's average score) (Male HLA-B27 rats [4]; oral 20 mg/kg once per day (10 mg/kg earlier), Day 28): 2 | Stool Character (group's average score) (Male HLA-B27 rats [4]; oral 20 mg/kg once per day (10 mg/kg earlier), Day 29): 2 | Stool Character (group's average score) (Male HLA-B27 rats [4]; oral 20 mg/kg once per day (10 mg/kg earlier), Day 30): 2.25 | Stool Character (group's average score) (Male HLA-B27 rats [4]; oral 20 mg/kg once per day (10 mg/kg earlier), Day 31): 2.25 | Stool Character (group's average score) (Male HLA-B27 rats [4]; oral 20 mg/kg once per day (10 mg/kg earlier), Day 32): 2 | Stool Character (group's average score) (Male HLA-B27 rats [4]; oral 20 mg/kg once per day (10 mg/kg earlier), Day 33): 1.5 | Stool Character (group's average score) (Male HLA-B27 rats [4]; oral 20 mg/kg once per day (10 mg/kg earlier), Day 34): 1.75 | Stool Character (group's average score) (Male HLA-B27 rats [4]; oral 20 mg/kg once per day (10 mg/kg earlier), Day 35): 1.5 | Stool Character (group's average score) (Male HLA-B27 rats [4]; oral 20 mg/kg once per day (10 mg/kg earlier), Day 36): 1.75 | Stool Character (group's average score) (Male HLA-B27 rats [4]; oral 20 mg/kg once per day (10 mg/kg earlier), Day 37): 1.5 | Stool Character (group's average score) (Male HLA-B27 rats [4]; oral 20 mg/kg once per day (10 mg/kg earlier), Day 38): 1.5 | Stool Character (group's average score) (Male HLA-B27 rats [4]; oral 20 mg/kg once per day (10 mg/kg earlier), Day 39): 2 | Stool Character (group's average score) (Male HLA-B27 rats [4]; oral 20 mg/kg once per day (10 mg/kg earlier), Day 40): 1.75 | Stool Character (group's average score) (Male HLA-B27 rats [4]; oral 20 mg/kg once per day (10 mg/kg earlier), Day 41): 2 | Stool Character (group's average score) (Male HLA-B27 rats [4]; oral 20 mg/kg once per day (10 mg/kg earlier), Day 42): 2 | Stool Character (group's average score) (Male HLA-B27 rats [4]; oral 20 mg/kg once per day (10 mg/kg earlier), Day 43): 2 | Stool Character (group's average score) (Male HLA-B27 rats [4]; oral 20 mg/kg once per day (10 mg/kg earlier), Day 44): 2 | Stool Character (group's average score) (Male HLA-B27 rats [4]; oral 20 mg/kg once per day (10 mg/kg earlier), Day 45): 2 | Stool Character (group's average score) (Male HLA-B27 rats [4]; oral 20 mg/kg once per day (10 mg/kg earlier), Day 46): 2 | Joint inflammation score (Male HLA-B27 rats [5]; Day 29): 0.75 | Joint inflammation score (Male HLA-B27 rats [5]; Day 30): 1.75 | Joint inflammation score (Male HLA-B27 rats [5]; Day 31): 1.25 | Joint inflammation score (Male HLA-B27 rats [5]; Day 32): 0.75 | Joint inflammation score (Male HLA-B27 rats [5]; Day 33): 1 | Joint inflammation score (Male HLA-B27 rats [5]; Day 34): 1.25 | Joint inflammation score (Male HLA-B27 rats [5]; Day 35): 2.25 | Joint inflammation score (Male HLA-B27 rats [5]; Day 36): 1 | Joint inflammation score (Male HLA-B27 rats [5]; Day 37): 4 | Joint inflammation score (Male HLA-B27 rats [5]; Day 38): 1.5 | Joint inflammation score (Male HLA-B27 rats [5]; Day 39): 1.5 | Joint inflammation score (Male HLA-B27 rats [5]; Day 40): 2.25 | Joint inflammation score (Male HLA-B27 rats [5]; Day 41): 2.25 | Joint inflammation score (Male HLA-B27 rats [5]; Day 42): 1.5 | Joint inflammation score (Male HLA-B27 rats [5]; Day 43): 1.25 | Joint inflammation score (Male HLA-B27 rats [5]; Day 44): 1 | Joint inflammation score (Male HLA-B27 rats [5]; Day 45): 2.5 | Joint inflammation score (Male HLA-B27 rats [5]; Day 46): 2 | Total Bone Mineral Density (mean ± SEM) [6]: 501.40 ± 11.97 mg/mL | Trabecular Bone Mineral Density (mean ± SEM) [6]: 312.34 ± 19.73 mg/mL | Scores on all disease parameters versus vehicle (Male HLA-B27 rats [7]; oral): although not statistically significant, were lower than corresponding scores from vehicle-treated rats | Fibrosis (0-2), mean ± SD (Male HLA-B27 rats [7]; [8]): 0.56 ± 0.32 | Inflammation (0-3), mean ± SD (Male HLA-B27 rats [7]; [8]): 2.06 ± 0.43 | Lesion depth (0-2), mean ± SD (Male HLA-B27 rats [7]; [8]): 0.75 ± 0.50 | Total score, mean ± SD (Male HLA-B27 rats [7]; [8]): 4.19 ± 1.74 | Ulceration (0-2), mean ± SD (Male HLA-B27 rats [7]; [8]): 0.81 ± 0.47
